Data from PubChem BioAssay (NCI).
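A five-concentration, 48-hour dose response in 96-well plates underlies each endpoint, interpolated linearly between surrounding concentrations. TGI marks complete inhibition of growth.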

Legend:
Test in all cases: NCI-60 cell line screen, 48 h
[1] = system: 786-0 renal
[2] = system: A498 renal
[3] = system: HCC-2998 colon
[4] = system: HCT-15 colon
[5] = system: HOP-62 NSCLC
[6] = system: MDA-MB-231 breast
[7] = system: MDA-N
[8] = system: MOLT-4 leukemia
[9] = system: NCI-H460 lung
[10] = system: NCI/ADR-RES ovarian
[11] = system: OVCAR-5 ovarian
[12] = system: SF-268 CNS
[13] = system: SF-295 CNS
[14] = system: SK-MEL-2 melanoma
[15] = system: SNB-75 CNS
[16] = system: SW-620 colon
[17] = system: A549 NSCLC
[18] = system: HCT-116 colon

Row | Structure (SMILES) | TGI [1] [µM] | TGI [2] [µM] | TGI [3] [µM] | TGI [4] [µM] | TGI [5] [µM] | TGI [6] [µM] | TGI [7] [µM] | TGI [8] [µM] | TGI [9] [µM] | TGI [10] [µM] | TGI [11] [µM] | TGI [12] [µM] | TGI [13] [µM] | TGI [14] [µM] | TGI [15] [µM] | TGI [16] [µM] | TGI [17] [µM] | TGI [18] [µM]
1 | CCOC(=O)C1c2[nH]c3ccccc3c2CCN1C(=O)c1ccc(OC)o1 (stereo unspecified) | > 10 | > 10 | > 10 | > 10 | > 10 | > 10 | > 10 | > 10 | > 10 | > 10 | > 10 | > 10 | > 10 | > 10 | > 10 | > 10 | – | –
2 | COc1ccc(N2C(=O)C3c4[nH]c5ccc(Br)cc5c4C4CCC(C(C)(C)C)CC4C3C2=O)cc1 (stereo unspecified) | > 100 | > 100 | > 100 | > 100 | > 100 | > 100 | > 100 | > 100 | > 100 | > 100 | > 100 | > 100 | > 100 | > 100 | – | > 100 | > 100 | > 100
3 | CCCCCCCCCCCCCCCCCCNC(=S)/N=C\C1=C(O)c2ccccc2C1=O | 21.2 | 40 | 6.4 | 26.7 | 22.2 | 24.6 | 31.4 | 16.5 | 26.2 | 31.7 | 26.9 | 22.1 | 31.2 | – | – | 25.3 | 28 | 15.3
4 | CC1=C(c2ccccc2)NC(=S)C(C)C(c2ccccc2)=N1 (stereo unspecified) | > 100 | > 100 | > 100 | > 100 | > 100 | > 100 | 46.8 | 54.1 | > 100 | > 100 | > 100 | > 100 | > 100 | – | > 100 | > 100 | > 100 | > 100
5 | Cc1c2c(c(O)c3c(O)cccc13)C(=O)C1(O)C(O)=C(C(=O)NCNc3ccc(C(N)=O)cn3)C(=O)C(N(C)C)C1C2 (stereo unspecified) | > 100 | 9.33 | 8.66 | 8.56 | > 100 | > 100 | 98.5 | 9.41 | – | > 100 | 34.2 | 79.7 | 17.9 | 34.1 | 9.22 | 42 | 23 | > 100
6 | CC[C@@]1(C)CCC2c3ccc(O)cc3CC[C@H]2C1C (stereo partly specified) | 29.8 | 34 | 27.1 | 31.4 | 33 | – | 25.8 | 32.5 | 40.6 | 35.7 | 33.3 | 30.1 | 34.6 | 32.8 | 37.2 | 32.4 | 33.6 | 31.9
7 | O=C(c1ccccc1)c1ccc2[nH]c(-c3c(Cl)c(Cl)c(Cl)c(Cl)c3C(=O)N/N=C/c3cccc(Oc4ccccc4)c3)nc2c1 | > 100 | – | – | > 100 | > 100 | > 100 | > 100 | > 100 | – | > 100 | > 100 | > 100 | > 100 | > 100 | > 100 | > 100 | > 100 | > 100
8 | CC(=O)O[C@H]1CC[C@@]2(C)C(=CC[C@@H]3[C@@H]2CC[C@]2(C)c4c(C)nn(-c5ccccc5)c4C[C@@H]32)C1 | 35.9 | 52.8 | 30.6 | > 100 | 35.2 | 50.6 | > 100 | > 100 | 47.9 | > 100 | 68.1 | > 100 | 12.9 | – | 49.9 | > 100 | > 100 | > 100
9 | NC(=O)NCCCC(NC(=O)OCCCCCCn1ccc(=O)[nH]c1=O)C(=O)O (stereo unspecified) | > 100 | – | > 100 | > 100 | > 100 | > 100 | > 100 | > 100 | > 100 | > 100 | > 100 | > 100 | > 100 | > 100 | > 100 | > 100 | > 100 | > 100
10 | COC(=O)C1(C#N)C(C)(C)N=C(c2ccccc2)C12CCCCC2 (stereo unspecified) | > 100 | > 100 | > 100 | > 100 | > 100 | > 100 | > 100 | > 100 | > 100 | > 100 | > 100 | > 100 | > 100 | > 100 | – | > 100 | > 100 | > 100
11 | Cc1ccc(S(=O)(=O)Oc2nc3ccccc3nc2OS(=O)(=O)c2ccc(C)cc2)cc1 | > 100 | > 100 | > 100 | > 100 | – | > 100 | > 100 | > 100 | > 100 | > 100 | > 100 | > 100 | > 100 | > 100 | > 100 | > 100 | > 100 | > 100
12 | CCOC(=O)c1cc2/c(=C\c3ccc(N(C)C)cc3)c3ccccc3n2[n+]1C | 15 | 27.7 | 10 | 31.9 | – | 18.9 | 15.3 | > 23.4 | 12.6 | > 100 | 20.4 | 19.7 | 16.1 | 4.74 | – | 13.1 | > 40 | 11.1
13 | COC(=O)c1cc(C(=CCC[C@H]2CC[C@@]3(C)C(CCC4C3CC[C@@]3(C)C4CC[C@@H]3C(C)CCCC(C)C)C2)c2cc(Cl)c(O)c(C(=O)OC)c2)cc(Cl)c1O (stereo partly specified) | > 10 | – | > 10 | > 10 | > 10 | > 10 | > 10 | > 10 | > 10 | > 10 | > 10 | > 10 | > 10 | > 10 | > 10 | > 10 | > 10 | > 10
